Laboratory results published in US20250288571A1 (Nested Therapeutics, Inc., priority 2024, published 2025).
Where two headings read alike, the source gives them in different places.

Legend:
[1] = system: HCT116 cells; test: HCT116 Cell Titer Glow assay (CTG); details: for IC50: read-out: CTG IC50 (nM) Cell Line: HCT116.20
[2] = system: IPC298 cells; test: IPC298 Cell Titer Glow assay (CTG); details: for IC50: read-out: CTG IC50 (nM) Cell Line: IPC298.2
Protocol: HCT116 and IPC298 Cell Titer Glow Assay (CTG)
HCT116 cells and IPC298 cells were diluted with culture medium to the desired density 500 cells/well and 40 μL of cell suspension were added into each well of 384-well cell culture plate. […] The plates were covered and stored at room temperature for 30 minutes without shaking and then the plates were transferred into a 37° C. 5% CO2 incubator overnight.
A 10 mM solution in dimethyl sulfoxide (DMSO) was prepared for each test compound. A 3 fold, 10-point dilution was prepared from the stock solution. 40 nl of each solution in 100% DMSO was added to the 384-well plate and diluted to a final 0.1% DMSO final concentration. The plates were then incubated for 72 hours (for both cell lines) at 37° C.
CellTiter-Glo® 2.0 Reagent (Promega, G9242) was removed from the refrigerator and equilibrated at room temperature (23° C.) for 60 minutes. The plates were then removed from the incubator and allowed to equilibrate to room temperature. 30 μL CellTiter-Glo® 2.0 Reagent were added to the assay plates, and spun 1 min/1000 rpm. The plates were allowed to stand for about 20 minutes before being read on Envision using a standard luminescence readout. DMSO was employed as negative control (High control, HC) and 1 uM Staurosporine was employed as positive control (Low control, LC).
The percent (%) inhibition at each concentration of compound was calculated based on the signal in the negative and positive control wells contained within each assay plate.

[3] = Homo sapiens, HCT-116, 72 h, read-out: CTG % cell viability 1000 uM HCT116.20, HCT116 cells, 72 hours, 1000 uM, percent cells remaining after treatment
[4] = Homo sapiens, IPC-298, 72 h, read-out: CTG % cell viability 100 uM IPC298.2, IPC298 cells, 72 hours, 100 uM, percent cells remaining after treatment

| Compound | IC50 ([1]; Homo sapiens, HCT-116, 72 h) [nM] | IC50 ([2]; Homo sapiens, IPC-298, 72 h) [nM] | further results |
| --- | --- | --- | --- |
| CNS(=O)(=O)Nc1nccc(Cc2cncc(Oc3ccc(OC)cc3F)c2C)c1F [Example 94, 3-fluoro-4-[[5-(2-fluoro-4-methoxy-phenoxy)-4-methyl-3-pyridyl]methyl]-N-(methylsulfamoyl)pyridin-2-amine] | 100 to 500 | < 10 | – |
| CNS(=O)(=O)Nc1ccc(Cc2cncc(Oc3ncc(Cl)cc3F)c2C)cn1 [Example 48, 5-[[5-[(5-chloro-3-fluoro-2-pyridyl)oxy]-4-methyl-3-pyridyl]methyl]-N-(methylsulfamoyl)pyridin-2-amine] | – | – | CTG % cell viability 1000 uM HCT116.20 ([1]; HCT116 cells, 72 hours, 1000 uM, percent cells remaining after treatment): 17.49%; IC50 ([1]; HCT116 cells, 72 hours): > 1000 nM; IC50 ([2]; IPC298 cells, 72 hours): > 1000 nM |
| CNS(=O)(=O)Nc1nccc(Cc2cnnc(Nc3ccc(Cl)cc3F)c2C)c1F [Example 52, N-(4-chloro-2-fluoro-phenyl)-5-[[3-fluoro-2-(methylsulfamoylamino)-4-pyridyl]methyl]-4-methyl-pyridazin-3-amine] | 100 to 500 | < 10 | – |
| C#Cc1cnc(Nc2cncc(Cc3ccnc(NS(=O)(=O)NC)c3F)c2C)c(F)c1 [Example 60, 4-[[5-[(5-ethynyl-3-fluoro-2-pyridyl)amino]-4-methyl-3-pyridyl]methyl]-3-fluoro-N-(methylsulfamoyl)pyridin-2-amine] | 100 to 500 | < 10 | – |
| CNS(=O)(=O)Nc1nccc(Oc2cncc(Nc3ccc(C)cc3F)c2C)c1F [Example 79] | < 10 | < 10 | – |
| CNS(=O)(=O)Nc1nccc(Cc2cncc(Cc3ccc(Cl)cc3F)c2C)c1F [Example 50, {[4-({5-[(4-chloro-2-fluorophenyl)methyl]-4-methylpyridin-3-yl}methyl)-3-fluoropyridin-2-yl]sulfamoyl}(methyl)amine] | 500 to 1000 | 10 to 100 | – |
| CNS(=O)(=O)Nc1nccc(Cc2cncc(Nc3ccc(Cl)cc3F)c2Cl)c1F [Example 67, 4-chloro-N-(4-chloro-2-fluorophenyl)-5-({3-fluoro-2-[(methylsulfamoyl)amino]pyridin-4-yl}methyl)pyridin-3-amine] | 10 to 100 | < 10 | – |
| C=CCNc1cncc(Cc2ccnc(NS(=O)(=O)NC)c2F)c1C [Example 68, 4-[[5-(allylamino)-4-methyl-3-pyridyl]methyl]-3-fluoro-N-(methylsulfamoyl)pyridin-2-amine] | 500 to 1000 | > 1000 | – |
| CNS(=O)(=O)Nc1nccc(Cc2cncc(Oc3ncc(C)s3)c2C)c1F [Example 89, 3-fluoro-4-[[4-methyl-5-(5-methylthiazol-2-yl)oxy-3-pyridyl]methyl]-N-(methylsulfamoyl)pyridin-2-amine] | > 1000 | > 1000 | viability at 1000 µM [1, 3]: 95%; viability at 100 µM [2, 4]: 100% |
| CNS(=O)(=O)Nc1nccc(Cc2cncc(Nc3ccc(OC(F)F)cn3)c2C)c1F [Example 66, 4-[[5-[[5-(difluoromethoxy)-2-pyridyl]amino]-4-methyl-3-pyridyl]methyl]-3-fluoro-N-(methylsulfamoyl)pyridin-2-amine] | 10 to 100 | < 10 | – |
| [2H]C([2H])([2H])c1ccc(Oc2cncc(Cc3ccnc(NS(=O)(=O)NC)c3F)c2C)c(F)c1 [Example 101, 3-fluoro-4-[[5-[2-fluoro-4-(trideuteriomethyl)phenoxy]-4-methyl-3-pyridyl]methyl]-N-(methylsulfamoyl)pyridin-2-amine] | 10 to 100 | < 10 | – |
| CNS(=O)(=O)Nc1nccc(Oc2cncc(Oc3ccc(C4CC4)cc3F)c2C)c1F [Example 102, 4-[[5-(4-cyclopropyl-2-fluoro-phenoxy)-4-methyl-3-pyridyl]oxy]-3-fluoro-N-(methylsulfamoyl)pyridin-2-amine] | 10 to 100 | < 10 | – |
| CNS(=O)(=O)Nc1nccc(Cc2cncc(Nc3ccc(OC(F)(F)F)cn3)c2C)c1F [Example 69, 3-fluoro-N-(methylsulfamoyl)-4-[[4-methyl-5-[[5-(trifluoromethoxy)-2-pyridyl]amino]-3-pyridyl]methyl]pyridin-2-amine] | > 1000 | 10 to 100 | viability at 1000 µM [1, 3]: 60.4% |
| CNS(=O)(=O)Nc1nccc(Cc2cncc(NC3CC4(C3)CN(C)C4)c2C)c1F [Example 85, N-[5-[[3-fluoro-2-(methylsulfamoylamino)-4-pyridyl]methyl]-4-methyl-3-pyridyl]-2-methyl-2-azaspiro[3.3]heptan-6-amine] | > 1000 | > 1000 | viability at 1000 µM ([1]; Homo sapiens, HCT-116, 72 h, read-out: CTG % cell viability 1000 uM HCT116.20): 102%; viability at 100 µM ([2]; Homo sapiens, IPC-298, 72 h, read-out: CTG % cell viability 100 uM IPC298.2): 106% |
| CCNS(=O)(=O)Nc1nccc(Cc2cncc(Oc3ccc(Cl)cc3F)c2C)c1F [Example 81, 4-[[5-(4-chloro-2-fluoro-phenoxy)-4-methyl-3-pyridyl]methyl]-N-(ethylsulfamoyl)-3-fluoro-pyridin-2-amine] | 100 to 500 | < 10 | – |
| CNS(=O)(=O)Nc1nccc(Cc2cncc(OCc3ccc(Cl)cc3)c2C)c1F [Example 82, 4-[[5-[(4-chlorophenyl)methoxy]-4-methyl-3-pyridyl]methyl]-3-fluoro-N-(methylsulfamoyl)pyridin-2-amine] | > 1000 | > 1000 | viability at 1000 µM [1, 3]: 93%; viability at 100 µM [2, 4]: 56% |
| CNS(=O)(=O)Nc1nccc(Cc2cncc(Nc3ccc(CC(C)C)cc3F)c2C)c1F [Example 88, 3-fluoro-4-[[5-(2-fluoro-4-isobutyl-anilino)-4-methyl-3-pyridyl]methyl]-N-(methylsulfamoyl)pyridin-2-amine] | 100 to 500 | < 10 | – |
| CNS(=O)(=O)Nc1nccc(Cc2cncc(OC3CCC(C)CC3)c2C)c1F (single isomer, unassigned) [Example 74, 3-fluoro-4-[[4-methyl-5-(4-methylcyclohexoxy)-3-pyridyl]methyl]-N-(methylsulfamoyl)pyridin-2-amine] | > 1000 | > 1000 | viability at 1000 µM [1, 3]: 92.9%; viability at 100 µM [2, 4]: 88.6% |
| CNS(=O)(=O)Nc1nccc(Cc2cncc(Oc3ccc(Cl)cc3F)c2C)c1OC [Example 93, 4-[[5-(4-chloro-2-fluoro-phenoxy)-4-methyl-3-pyridyl]methyl]-3-methoxy-N-(methylsulfamoyl)pyridin-2-amine] | 10 to 100 | < 10 | – |
| CNS(=O)(=O)Nc1nccc(Cc2cncc(Nc3ncccn3)c2C)c1F [Example 55, N-[5-[[3-fluoro-2-(methylsulfamoylamino)-4-pyridyl]methyl]-4-methyl-3-pyridyl]pyrimidin-2-amine] | > 1000 | – | viability at 1000 µM [1, 3]: 80.9% |
| CNS(=O)(=O)Nc1nccc(Cc2cncc(Oc3ccc(C(F)(F)F)cc3F)c2C)c1F [Example 51, 3-fluoro-4-[[5-[2-fluoro-4-(trifluoromethyl)phenoxy]-4-methyl-3-pyridyl]methyl]-N-(methylsulfamoyl)pyridin-2-amine] | 100 to 500 | – | – |
| CNS(=O)(=O)Nc1nccc(Cc2cncc(Nc3ccc(Cl)cc3F)c2C)n1 [Example 53, 4-[[5-(4-chloro-2-fluoro-anilino)-4-methyl-3-pyridyl]methyl]-N-(methylsulfamoyl)pyrimidin-2-amine] | 10 to 100 | – | – |
| CNS(=O)(=O)Nc1nccc(Cc2cncc(Nc3ccc(Cl)cc3F)c2C)c1OC [Example 45, 4-[[5-(4-chloro-2-fluoro-anilino)-4-methyl-3-pyridyl]methyl]-3-methoxy-N-(methylsulfamoyl)pyridin-2-amine] | 10 to 100 | – | – |
